Test results taken from article PMC7655065, “Effect of 3-subsitution of quinolinehydroxamic acids on selectivity of histone deacetylase isoforms” (Journal of Enzyme Inhibition and Medicinal Chemistry, 2020).
Read-outs that look alike come from different tables or passages of the source.

Assays:
HCT116 cells = assay: Sulforhodamine B antiproliferative assay, HCT116; format: cell-based; settings: Homo sapiens, HCT-116, SRB, 48 h, values > 10 μM estimated from best curve fitting
Experimental: (§1) All human cancer cells were maintained in RPMI 1640 medium supplemented with 10% FBS and penicillin (100 units/ml)/streptomycin (100 µg/ml)/amphotericin B (0.25 µg/ml). All cells were maintained in humidified air containing 5% CO2 at 37 °C and cultured every 2–3 days. […]
(§2) Cells were seeded at the density of 5000 cells/well into 96-plate overnight. Basal cells were fixed with 10% trichloroacetic acid (TCA) to represent the cell population at the time of compound addition (T0). After additional incubation of DMSO (C) or different doses of test compounds (Tx) for 48 h, cells were fixed with 10% TCA and stained with SRB at 0.4% (w/v) in 1% AcOH. Unbound SRB was washed out using 1% AcOH and SRB bound cells were solubilised with 10 mM Trizma base. The absorbance was read at a wavelength of 515 nm. The 50% growth inhibition (GI50) was calculated by 100 − [(Tx – T0)/(C – T0)] × 100.

A549 cells [1] = assay: Sulforhodamine B antiproliferative assay, A549; format: cell-based; settings: Homo sapiens
Experimental: as §1, §2

HDAC6 = biological target: T1, HDAC6 (Homo sapiens, UniProt Q9UBN7); assay: HDAC biochemical assay (Fluor-de-Lys), HDAC6; settings: human recombinant HDAC6
T1 construct: EurofinPanlabs (Taipei, Taiwan)
T1 sequence (Q9UBN7 1-1215): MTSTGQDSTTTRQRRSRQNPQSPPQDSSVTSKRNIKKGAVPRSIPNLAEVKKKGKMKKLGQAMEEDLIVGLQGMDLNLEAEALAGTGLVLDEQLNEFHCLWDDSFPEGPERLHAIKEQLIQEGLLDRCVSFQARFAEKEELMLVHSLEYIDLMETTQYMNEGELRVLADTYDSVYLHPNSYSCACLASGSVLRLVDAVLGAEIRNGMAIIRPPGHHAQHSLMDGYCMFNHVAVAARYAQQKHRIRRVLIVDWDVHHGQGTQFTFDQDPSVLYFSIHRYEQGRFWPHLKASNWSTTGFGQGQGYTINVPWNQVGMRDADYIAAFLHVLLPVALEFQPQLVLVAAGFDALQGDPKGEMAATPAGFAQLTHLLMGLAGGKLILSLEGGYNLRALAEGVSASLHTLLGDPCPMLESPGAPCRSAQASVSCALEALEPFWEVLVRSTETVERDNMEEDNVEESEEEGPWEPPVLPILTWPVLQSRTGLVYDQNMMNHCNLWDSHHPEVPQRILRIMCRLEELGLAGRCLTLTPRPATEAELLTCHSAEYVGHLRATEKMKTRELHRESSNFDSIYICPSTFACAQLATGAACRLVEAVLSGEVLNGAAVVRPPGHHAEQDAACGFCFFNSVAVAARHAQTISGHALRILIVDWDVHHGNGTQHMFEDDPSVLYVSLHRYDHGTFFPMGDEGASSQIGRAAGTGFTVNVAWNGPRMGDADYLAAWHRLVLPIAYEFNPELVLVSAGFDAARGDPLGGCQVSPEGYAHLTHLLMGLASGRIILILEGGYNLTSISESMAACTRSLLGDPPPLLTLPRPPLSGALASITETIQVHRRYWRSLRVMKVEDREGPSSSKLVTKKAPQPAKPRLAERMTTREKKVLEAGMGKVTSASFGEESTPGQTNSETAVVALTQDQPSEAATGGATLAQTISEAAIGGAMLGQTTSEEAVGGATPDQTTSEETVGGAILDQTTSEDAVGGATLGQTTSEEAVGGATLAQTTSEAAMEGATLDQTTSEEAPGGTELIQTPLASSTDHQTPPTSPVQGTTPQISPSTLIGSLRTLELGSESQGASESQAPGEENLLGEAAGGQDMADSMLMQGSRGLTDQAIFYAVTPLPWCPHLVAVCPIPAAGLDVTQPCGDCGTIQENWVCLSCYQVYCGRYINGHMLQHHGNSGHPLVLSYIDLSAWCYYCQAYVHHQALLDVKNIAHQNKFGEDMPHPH

HDAC8 = biological target: T2, HDAC8 (Homo sapiens, UniProt Q9BY41); assay: HDAC biochemical assay (Fluor-de-Lys), HDAC8; settings: for IC50: human recombinant HDAC8; for Selectivity ratio of HDAC8 over HDAC6: IC50 HDAC8 / IC50 HDAC6
T2 construct: EurofinPanlabs (Taipei, Taiwan)
T2 sequence (Q9BY41 1-377): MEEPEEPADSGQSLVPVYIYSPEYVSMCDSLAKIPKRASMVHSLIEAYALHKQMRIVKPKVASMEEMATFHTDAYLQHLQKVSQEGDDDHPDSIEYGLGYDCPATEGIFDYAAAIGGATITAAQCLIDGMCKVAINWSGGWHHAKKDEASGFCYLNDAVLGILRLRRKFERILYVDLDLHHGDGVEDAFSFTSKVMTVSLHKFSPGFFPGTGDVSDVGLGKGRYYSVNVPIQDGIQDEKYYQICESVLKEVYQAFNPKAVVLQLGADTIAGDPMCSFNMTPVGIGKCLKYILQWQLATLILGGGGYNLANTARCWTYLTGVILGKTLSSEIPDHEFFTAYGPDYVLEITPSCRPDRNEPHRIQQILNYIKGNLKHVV

HDAC1 = biological target: T3, HDAC1 (Homo sapiens, UniProt Q13547); assay: HDAC biochemical assay (Fluor-de-Lys), HDAC1; settings: for IC50: human recombinant HDAC1, values > 10 μM estimated from best curve fitting; for Selectivity ratio of HDAC1 over HDAC6: IC50 HDAC1 / IC50 HDAC6
T3 construct: EurofinPanlabs (Taipei, Taiwan)
T3 sequence (Q13547 whole entry): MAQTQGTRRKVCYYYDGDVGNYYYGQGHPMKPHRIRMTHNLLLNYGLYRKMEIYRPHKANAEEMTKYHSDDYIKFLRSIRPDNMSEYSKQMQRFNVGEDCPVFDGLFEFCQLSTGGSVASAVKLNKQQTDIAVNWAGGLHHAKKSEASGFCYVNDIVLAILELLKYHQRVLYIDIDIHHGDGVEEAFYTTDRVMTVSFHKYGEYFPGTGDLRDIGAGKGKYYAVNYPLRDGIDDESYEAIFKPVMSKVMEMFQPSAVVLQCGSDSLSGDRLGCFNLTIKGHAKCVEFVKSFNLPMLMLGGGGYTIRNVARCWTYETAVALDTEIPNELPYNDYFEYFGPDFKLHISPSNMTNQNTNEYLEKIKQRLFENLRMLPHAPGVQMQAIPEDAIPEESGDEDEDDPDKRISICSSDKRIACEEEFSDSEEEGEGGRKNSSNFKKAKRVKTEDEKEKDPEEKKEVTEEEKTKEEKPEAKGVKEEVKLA

A549 cells [2] = assay: Western blot analysis of apoptosis and DNA damage markers; format: cell-based, human
Experimental: buffer (20 mMTris-HCl pH 7.5, 150 mM NaCl, 1 mM Na2EDTA, 1 mM EGTA, 1% NP-40, 1% sodium deoxycholate, 0.1% SDS, 2.5 mM β-glycerylphosphate, 1 mM Na4P2O7, 5 mM NaF, 1 mM Na3VO4 and protease inhibitor cocktail from Millipore) on ice for 30 min following by centrifugation at 13000 rpm for 30 min. Protein concentrations were determined and equal amounts of protein were separated by 8–15% sodium dodecyl sulphate-polyacrylamide gel electrophoresis (SDS–PAGE) and transferred to poly(vinylidene difluoride) (PVDF) membranes. Membranes were immunoblotted with specific antibodies overnight at 4 °C and then applied to appropriate horseradish peroxidase-conjugated anti-mouse or anti-rabbit IgG secondary antibodies for 1 h at RT. Signals were detected using an enhanced chemiluminescence (Amersham, Buckinghamshire, UK).

HDAC2 = biological target: T4, HDAC2 (Homo sapiens, UniProt Q92769); assay: HDAC biochemical assay (Fluor-de-Lys), HDAC2; settings: for IC50: human recombinant HDAC2, dash = no inhibition or activity that could not be fitted to an IC50 curve; for Selectivity ratio of HDAC2 over HDAC6: IC50 HDAC2 / IC50 HDAC6
T4 construct: EurofinPanlabs (Taipei, Taiwan)
T4 sequence (Q92769 whole entry): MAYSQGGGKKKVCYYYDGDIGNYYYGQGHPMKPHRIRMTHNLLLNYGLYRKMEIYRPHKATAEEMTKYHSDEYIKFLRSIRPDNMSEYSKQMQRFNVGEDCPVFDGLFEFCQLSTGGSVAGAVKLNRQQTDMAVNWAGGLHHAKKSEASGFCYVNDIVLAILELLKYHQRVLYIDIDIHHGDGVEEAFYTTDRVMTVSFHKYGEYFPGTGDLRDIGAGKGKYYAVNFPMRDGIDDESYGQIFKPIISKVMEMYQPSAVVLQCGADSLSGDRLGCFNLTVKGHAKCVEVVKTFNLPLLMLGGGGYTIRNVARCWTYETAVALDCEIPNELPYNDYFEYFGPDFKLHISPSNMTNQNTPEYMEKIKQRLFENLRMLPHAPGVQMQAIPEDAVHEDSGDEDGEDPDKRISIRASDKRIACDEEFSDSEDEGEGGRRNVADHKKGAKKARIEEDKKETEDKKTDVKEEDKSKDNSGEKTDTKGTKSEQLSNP

A549 cells [3] = assay: Flow cytometry cell cycle analysis; format: cell-based, human; settings: A549 cells, 0.25, 0.5, 10 μM, 48 h, propidium iodide
Experimental: Briefly, A549 cells were starved with EBM-2 medium overnight and were subsequently replenished with EGM-2 medium with or without 17, 25, and 26 (0.25, 0.5, 10 µM) for 48 h. After being trypsinized and fixed in ice-cold 75% MeOH for 1 h at −20 °C, A549 cells were washed with PBS and resuspended in 0.2 ml DNA extraction buffer (0.2 M Na2HPO4, 0.1 M citric acid; pH 7.8) for 30 min. Then the cells were stained with propidium iodide solution (PI; 100 µg/ml RNase, 80 µg/ml propidium iodide, 0.1% Triton X-100) in PBS. FACScan flow cytometry was utilised to determine cell cycle distribution, and data analysis was performed with CellQuest software (BD Biosciences).

[4] = A549 cells, SRB, 48 h, values > 10 μM estimated from best curve fitting, read-out: Antiproliferative activity IC50, A549

| IC50 (HCT116 cells) [µM] | IC50 (A549 cells [1]; [4]) [µM] | IC50 (HDAC6) [µM] | IC50 (HDAC8) [µM] | IC50 (HDAC1) [µM] | IC50 (HDAC2) [µM] | Selectivity ratio of HDAC8 over HDAC6 (HDAC8) | Selectivity ratio of HDAC1 over HDAC6 (HDAC1) | Selectivity ratio of HDAC2 over HDAC6 (HDAC2) | IC50 (A549 cells [1]; range over both cell lines (A549 and HCT116) and both compounds, abstract, read-out: IC50 values against A549 and HCT116 cells) [µM] | Compound | Rank of efficacy in cleaving caspase isoforms (Western blot) (A549 cells [2]; A549 cells, 48 h, comparison among the three tested compounds) | Cell cycle distribution, sub G1 population (A549 cells [3]) | Caspase 3, 8, and 9 cleavage (Western blot) (A549 cells [2]; A549 cells treated for 48 h, 0.25, 5 and 10 µM) |
| --- | --- | --- | --- | --- | --- | --- | --- | --- | --- | --- | --- | --- | --- |
| 4.76 ± 0.43 | 3.11 ± 0.24 | 0.00779 | 2.76 | 4.95 | > 10 |  |  |  |  | COc1cnc2c(NCc3ccc(C(=O)NO)cc3)cccc2c1 [Compound 17, N-Hydroxy-4-[(3-methoxy-quinolin-8-ylamino)-methyl]-benzamide] | least potent amongst these three compounds |  |  |
| 4.79 ± 0.47 | 3.41 ± 0.9 |  |  |  |  |  |  |  |  | O=C(NO)c1ccc(CNc2cccc3cc(I)cnc23)cc1 [Compound 16, N-Hydroxy-4-[(3-iodo-quinolin-8-ylamino)-methyl]-benzamide] |  |  |  |
| 3.59 ± 0.51 | 3.84 ± 0.4 | 0.0301 | 4.93 | 6 | 3.52 | (164) | (199) | (117) |  | O=C(NO)c1ccc(CNc2cccc3cc(-c4ccsc4)cnc23)cc1 [Compound 29, N-Hydroxy-4-(((3-(thiophen-3-yl)quinolin-8-yl)amino)methyl)benzamide] |  |  |  |
| 1.61 ± 0.22 | 1.29 ± 0.41 | 0.00475 | 1.8 | 2.62 | 1.31 | (379) | (552) | (276) | 1.29 to 2.13 | O=C(NO)c1ccc(CNc2cccc3cc(-c4cccnc4)cnc23)cc1 [Compound 25, N-Hydroxy-4-(((3-(pyridin-3-yl)quinolin-8-yl)amino)methyl)benzamide] |  | concentration dependent accumulation of A549 cells in sub G1 phase | dose dependent increases in caspase 3, 8, and 9 cleavage |
| > 10 | 9.1 ± 0.3 |  |  |  |  |  |  |  |  | COc1ccc(-c2cnc3c(NCc4ccc(C(=O)NO)cc4)cccc3c2)cc1 [Compound 20, N-Hydroxy-4-(((3–(4-methoxyphenyl)quinolin-8-yl)amino)methyl)benzamide] |  |  |  |

Further lines, the molecule ahead of its results:

| Compound | IC50 (HCT116 cells) [µM] | IC50 (A549 cells [1]; [4]) [µM] | IC50 (HDAC6) [µM] | IC50 (HDAC8) [µM] | IC50 (HDAC1) [µM] | IC50 (HDAC2) [µM] | Selectivity ratio of HDAC8 over HDAC6 (HDAC8) | Selectivity ratio of HDAC1 over HDAC6 (HDAC1) | Selectivity ratio of HDAC2 over HDAC6 (HDAC2) | IC50 (A549 cells [1]; range over both cell lines (A549 and HCT116) and both compounds, abstract, read-out: IC50 values against A549 and HCT116 cells) [µM] | Rank of efficacy in cleaving caspase isoforms (Western blot) (A549 cells [2]; A549 cells, 48 h, comparison among the three tested compounds) | Cell cycle distribution, sub G1 population (A549 cells [3]) | Caspase 3, 8, and 9 cleavage (Western blot) (A549 cells [2]; A549 cells treated for 48 h, 0.25, 5 and 10 µM) |
| --- | --- | --- | --- | --- | --- | --- | --- | --- | --- | --- | --- | --- | --- |
| O=C(NO)c1ccc(CNc2cccc3cc(-c4cccc([N+](=O)[O-])c4)cnc23)cc1 [Compound 24, N-Hydroxy-4-(((3–(3-nitrophenyl)quinolin-8-yl)amino)methyl)benzamide] | 2.88 ± 0.21 | 4.05 ± 0.42 |  |  |  |  |  |  |  |  |  |  |  |
| O=C(NO)c1ccc(CNc2cccc3cc(Cl)cnc23)cc1 [Compound 14, 4-[(3-Chloro-quinolin-8-ylamino)-methyl]-N-hydroxy-benzamide] | 4.82 ± 0.29 | 3.14 ± 0.31 | 0.0202 | 3.64 | 4.32 |  |  |  |  |  |  |  |  |
| O=C(NO)c1ccc(CNc2cccc3cc(Br)cnc23)cc1 [Compound 15, 4-[(3-Bromo-quinolin-8-ylamino)-methyl]-N-hydroxy-benzamide] | > 10 | > 10 |  |  |  |  |  |  |  |  |  |  |  |
| N#Cc1cccc(-c2cnc3c(NCc4ccc(C(=O)NO)cc4)cccc3c2)c1 [Compound 22, 4-(((3–(3-Cyanophenyl)quinolin-8-yl)amino)methyl)-N-hydroxybenzamide] | 3.18 ± 0.16 | 2.04 ± 0.35 | 0.0362 | 3.83 | 9.11 | 1.98 | (106) | (252) | (55) |  |  |  |  |
| N#Cc1ccccc1-c1cnc2c(NCc3ccc(C(=O)NO)cc3)cccc2c1 [Compound 21, 4-(((3–(2-Cyanophenyl)quinolin-8-yl)amino)methyl)-N-hydroxybenzamide amide] | 6 ± 1.56 | 8.65 ± 2.35 |  |  |  |  |  |  |  |  |  |  |  |
| O=C(NO)c1ccc(CNc2cccc3cc(-c4ccco4)cnc23)cc1 [Compound 27, 4-(((3-(Furan-2-yl)quinolin-8-yl)amino)methyl)-N-hydroxybenzamide] | 2.2 ± 0.17 | 3.18 ± 0.19 | 0.0207 | 3.14 | 3.4 | 1.28 | (152) | (164) | (62) |  |  |  |  |
| O=C(NO)c1ccc(CNc2cccc3cc(-c4ccoc4)cnc23)cc1 [Compound 28, 4-(((3-(Furan-3-yl)quinolin-8-yl)amino)methyl)-N-hydroxybenzamide] | 3.77 ± 0.21 | 3.77 ± 0.28 | 0.0134 | 2.91 | 4.59 | 2.1 | (216) | (343) | (157) |  |  |  |  |
| N#Cc1ccc(-c2cnc3c(NCc4ccc(C(=O)NO)cc4)cccc3c2)cc1 [Compound 23, 4-(((3–(4-Cyanophenyl)quinolin-8-yl)amino)methyl)-N-hydroxybenzamide] | 3.5 ± 0.32 | 3.64 ± 0.66 |  |  |  |  |  |  |  |  |  |  |  |
| COc1ccccc1-c1cnc2c(NCc3ccc(C(=O)NO)cc3)cccc2c1 [Compound 19, N-Hydroxy-4-(((3–(2-methoxyphenyl)quinolin-8-yl)amino)methyl)benzamide] | 7.19 ± 0.77 | > 10 |  |  |  |  |  |  |  |  |  |  |  |
